Experimental data: ChEMBL document CHEMBL1201862, “PubChem BioAssay data set” (2004)
Counter-ions that a name gives are not always drawn.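 1) Cells in 96-well plates. 2) Compound, 48 h, 5 concentrations. 3) Linear interpolation between surrounding doses. 4) Unreached endpoint = highest concentration. GI50: concentration for 50% inhibition of growth.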 Active and inactive are the calls of the source. Rule as the data show it: active = GI50 up to about 1.1 µM and inactive = higher.

How the values were obtained:
Experiment in all cases: DTP human tumour cell line panel, 48 h
786-0 = tested on: 786-0
OVCAR-8 = tested on: OVCAR-8
SW-620 = tested on: SW-620
IGROV-1 = tested on: IGROV-1
K562 = tested on: K562
OVCAR-4 = tested on: OVCAR-4
UACC-257 = tested on: UACC-257
A549 = tested on: A549
CAKI-1 = tested on: CAKI-1
HCC 2998 = tested on: HCC 2998
SNB-19 = tested on: SNB-19
HCT-15 = tested on: HCT-15
OVCAR-5 = tested on: OVCAR-5
HT-29 = tested on: HT-29
NCI-H226 = tested on: NCI-H226
UACC-62 = tested on: UACC-62
BT-549 = tested on: BT-549
HOP-92 = tested on: HOP-92
KM12 = tested on: KM12
CCRF-CEM = tested on: CCRF-CEM
RPMI-8226 = tested on: RPMI-8226
SN12C = tested on: SN12C
MOLT-4 = tested on: MOLT-4
MDA-N = tested on: MDA-N
SF-268 = tested on: SF-268
SK-OV-3 = tested on: SK-OV-3
NCI-H460 = tested on: NCI-H460
DU-145 = tested on: DU-145
TK-10 = tested on: TK-10
A498 = tested on: A498
UO-31 = tested on: UO-31
MDA-MB-231 = tested on: MDA-MB-231
SK-MEL-2 = tested on: SK-MEL-2
HOP-62 = tested on: HOP-62
SR = tested on: SR
EKVX = tested on: EKVX
LOX IMVI = tested on: LOX IMVI
SF-295 = tested on: SF-295
NCI-H522 = tested on: NCI-H522
MCF7 = tested on: MCF7
Hs-578T = tested on: Hs-578T
OVCAR-3 = tested on: OVCAR-3
ACHN = tested on: ACHN
COLO 205 = tested on: COLO 205
NCI/ADR-RES = tested on: NCI/ADR-RES
SK-MEL-5 = tested on: SK-MEL-5
HCT-116 = tested on: HCT-116
NCI-H23 = tested on: NCI-H23
U-251 = tested on: U-251
HL-60 = tested on: HL-60
T47D = tested on: T47D
SF-539 = tested on: SF-539
MDA-MB-435 = tested on: MDA-MB-435
M14 = tested on: M14
PC-3 = tested on: PC-3
RXF 393 = tested on: RXF 393
SNB-75 = tested on: SNB-75
Malme-3M = tested on: Malme-3M
SK-MEL-28 = tested on: SK-MEL-28

Measured: GI50

O=Cc1ccc2ccocc1-2
> 100 µM: HCT-15
inactive: 786-0 > 100 µM | OVCAR-8 > 100 µM | SW-620 > 100 µM | IGROV-1 > 100 µM | K562 > 100 µM | OVCAR-4 > 100 µM | UACC-257 > 100 µM | A549 > 100 µM | CAKI-1 > 100 µM | HCC 2998 > 100 µM | SNB-19 > 100 µM | OVCAR-5 > 100 µM | HT-29 > 100 µM | NCI-H226 > 100 µM | UACC-62 > 100 µM | BT-549 > 100 µM | HOP-92 > 100 µM | KM12 > 100 µM | CCRF-CEM > 100 µM | RPMI-8226 > 100 µM | SN12C > 100 µM | MOLT-4 > 100 µM | MDA-N > 100 µM | SF-268 > 100 µM | SK-OV-3 > 100 µM | NCI-H460 > 100 µM | DU-145 > 100 µM | TK-10 > 100 µM | A498 > 100 µM | UO-31 > 100 µM | MDA-MB-231 > 100 µM | SK-MEL-2 > 100 µM | HOP-62 > 100 µM | SR > 100 µM | EKVX > 100 µM | LOX IMVI > 100 µM | SF-295 > 100 µM | NCI-H522 > 100 µM | MCF7 > 100 µM | Hs-578T > 100 µM | OVCAR-3 > 100 µM | ACHN > 100 µM | COLO 205 > 100 µM | NCI/ADR-RES > 100 µM | SK-MEL-5 > 100 µM | HCT-116 > 100 µM | NCI-H23 > 100 µM | U-251 > 100 µM | HL-60 > 100 µM | T47D > 100 µM | SF-539 > 100 µM | MDA-MB-435 > 100 µM | M14 > 100 µM | PC-3 > 100 µM | RXF 393 > 100 µM

COc1cc(O)c(C(=O)/C=C/c2ccc(O)cc2)cc1Oc1ccc(C(=O)/C=C/c2ccc(O)cc2)c(O)c1 [RHUSCHALCONE IV]
1.79 µM: HCT-15
inactive: 786-0 2.23 µM | OVCAR-8 2.59 µM | SNB-75 4.21 µM | SW-620 3.36 µM | IGROV-1 1.67 µM | K562 3.39 µM | Malme-3M 2.58 µM | OVCAR-4 2.22 µM | UACC-257 6.19 µM | SK-MEL-28 1.95 µM | A549 2.96 µM | CAKI-1 3.5 µM | SNB-19 4.53 µM | OVCAR-5 2.69 µM | HT-29 1.36 µM | UACC-62 2.33 µM | BT-549 2.92 µM | HOP-92 4.36 µM | KM12 1.44 µM | CCRF-CEM 2.66 µM | RPMI-8226 2.34 µM | SN12C 2.45 µM | MOLT-4 3.13 µM | MDA-N 3.21 µM | SF-268 2.96 µM | SK-OV-3 2.88 µM | NCI-H460 2.88 µM | DU-145 2.29 µM | TK-10 3.42 µM | A498 2.05 µM | UO-31 2.56 µM | MDA-MB-231 3.6 µM | SK-MEL-2 3.36 µM | HOP-62 4.47 µM | SR 2.38 µM | EKVX 2.27 µM | LOX IMVI 3.4 µM | SF-295 3.76 µM | NCI-H522 1.94 µM | MCF7 2.69 µM | Hs-578T 6.52 µM | OVCAR-3 2.87 µM | ACHN 2.4 µM | COLO 205 1.88 µM | NCI/ADR-RES 2.91 µM | SK-MEL-5 1.92 µM | HCT-116 1.8 µM | NCI-H23 2.67 µM | U-251 1.93 µM | HL-60 3.65 µM | T47D 2.29 µM | SF-539 2.37 µM | MDA-MB-435 3.4 µM | M14 3.9 µM | PC-3 3.78 µM | RXF 393 2.48 µM

N=C(N)c1ccc(-c2ccc(-c3ccc(C(=N)N)cc3)o2)cc1 [FURAMIDINE HYDROCHLORIDE]
40.9 µM: HCT-15
inactive: 786-0 23.2 µM | OVCAR-8 33.7 µM | SNB-75 42 µM | SW-620 28.5 µM | IGROV-1 46.3 µM | K562 22.8 µM | Malme-3M 18.6 µM | OVCAR-4 > 100 µM | UACC-257 27.9 µM | SK-MEL-28 20.6 µM | A549 34.2 µM | CAKI-1 54.3 µM | SNB-19 51.9 µM | OVCAR-5 18.9 µM | HT-29 24.5 µM | NCI-H226 69.2 µM | UACC-62 25.6 µM | BT-549 37.5 µM | HOP-92 62.4 µM | KM12 22.5 µM | CCRF-CEM 24.9 µM | RPMI-8226 18.6 µM | SN12C 12.6 µM | MOLT-4 27.4 µM | MDA-N 27.5 µM | SF-268 45.3 µM | SK-OV-3 > 100 µM | NCI-H460 17.6 µM | DU-145 32.7 µM | TK-10 24.9 µM | A498 63.7 µM | UO-31 15.8 µM | MDA-MB-231 > 100 µM | SK-MEL-2 23.8 µM | HOP-62 29 µM | SR 29.8 µM | EKVX 28.4 µM | SF-295 41.4 µM | NCI-H522 24.8 µM | MCF7 17.5 µM | Hs-578T 21.4 µM | OVCAR-3 > 100 µM | ACHN 39.6 µM | COLO 205 12.4 µM | NCI/ADR-RES 31.3 µM | SK-MEL-5 11.9 µM | HCT-116 28.8 µM | NCI-H23 22 µM | U-251 16.6 µM | HL-60 77.8 µM | T47D 23.4 µM | SF-539 37.3 µM | MDA-MB-435 30.7 µM | M14 25.1 µM | PC-3 39.5 µM | RXF 393 32 µM
